Data on one compound can be found in patent US20190160054A1, “PHARMACEUTICAL COMBINATION OF NINTEDANIB, TRIFLURIDINE AND TIPIRACIL FOR TREATING COLORECTAL CANCER” (Boehringer Ingelheim International GmbH, priority 2016, published 2019).

Each structure is given as a SMILES string.

For one data set, the system named is SKOV3. Kind of data set: in vivo anti-tumor efficacy, ovarian xenograft model SKOV3. The conditions noted are these: SKOV3, 50 mg/kg/d.
The next data set has as its system GS-9L. The data set can be described thus: in vivo anti-tumor efficacy, glioblastoma GS-9L syngeneic rat tumor model. Particulars: 50 mg/kg/d.
The next data set relates to HT-29. The data set can be described thus: in vivo anti-tumor efficacy, colorectal xenograft model HT-29.
The subject of a further data set is PAC-120. The data set can be described thus: in vivo anti-tumor efficacy, hormone-dependent prostate xenograft model PAC-120. Particulars: PAC-120, 100 mg/kg/d.
The test system of a further data set is Rip-Tag. The data set can be described thus: in vivo anti-tumor efficacy, pancreas murine transgenic model Rip-Tag.
In the next data set the test system is Caki-1. Kind of data set: in vivo anti-tumor efficacy, renal xenograft model Caki-1. Particulars: Caki-1, 100 mg/kg/d.
In data set [1] the test system is metastatic colorectal cancer. The data set can be described thus: phase I/II study of the combination of Compound A1 with Compound Mixture B1 (UMIN000017114). Type of data set: in vivo, patients.
From the text: The key eligibility criteria were patients with metastatic colorectal cancer refractory or intolerant to fluoropyrimidine, irinotecan, oxaliplatin, anti-angiogenesis inhibitor and anti-EGFR antibody (if wild-type RAS) and without prior regorafenib and Compound Mixture B1 treatment; at least one measurable lesion; and ECOG performance status of 0 or 1.
Secondary endpoints included overall survival (OS), PFS, objective response rate, disease control rate, safety, and pharmacokinetic parameters.
Key Inclusion Criteria: • 1) Written informed consent • 2) >=20 years old • 3) Histologically or cytologically proven adenocarcinoma of colon or rectum (except appendiceal cancer), and KRAS test were carried out. • 4) Prior chemotherapy was discontinued due to disease progression, or an adverse event. • 5) No prior treatment with Regorafenib • 6) ECOG Performance Status of 0 or 1 • 7) Adequate oral intake • 8) With measurable disease according to RECIST • 9) Adequate organ function within 14 days prior to enrollment. • a. Hemoglobin>=9.0 g/d • b. Absolute neutrophil count>=1,500/mm3 • c. Platelet count>=100,000/mm3 • d with no liver metastasis, AST/ALT<=ULNx1.5 and T-Bil<=UNL with liver metastasis, AST/ALT<=ULNx2.5 and T-Bil<=UNL • e Serum creatinine<=1.5 mg/dL • 10) Women of childbearing potential must have a negative pregnancy test within 7 days prior to enrollment. […]
In the next data set the test system is Calu-6. Kind of data set: in vivo anti-tumor efficacy, non-small-cell lung xenograft model Calu-6. Particulars: Calu-6, 50 mg/kg/d.
The next data set concerns NCI-H460. The data set can be described thus: in vivo anti-tumor efficacy, non-small-cell lung xenograft model NCI-H460. The conditions noted are these: NCI-H460, 25 mg/kg/d.
The subject of another data set is FaDu. The data set can be described thus: in vivo anti-tumor efficacy, head and neck xenograft model FaDu. Particulars: 100 mg/kg/d.

For the compound `COC(=O)c1ccc2c(c1)NC(=O)/C2=C(\Nc1ccc(N(C)C(=O)CN2CCN(C)CC2)cc1)c1ccccc1` [Compound A, 3-Z-[1-(4-(N-((4-methyl-piperazin-1-yl)-methylcarbonyl)-N-methyl-amino)-anilino)-1-phenyl-methylene]-6-methoxycarbonyl-2-indolinone], the “Efficacy T/C” value is given as “T/C 19% @ 50 mg/kg/d” in the data set with SKOV3; “T/C 32% @ 50 mg/kg/d” in the data set with GS-9L; “T/C 16% @ 100 mg/kg/d” in the data set on HT-29 (HT-29 colorectal model, 100 mg/kg/d, T/C = reduction of tumor size in % of the control); “T/C 34% @ 100 mg/kg/d” in the data set on PAC-120; “T/C 13% @ 100 mg/kg/d” in the data set on Caki-1; “T/C 24% @ 50 mg/kg/d” in the data set with Calu-6. The “Efficacy T/C” value in the data set with NCI-H460 was “T/C 54% @ 25 mg/kg/d”; in the data set with FaDu it was “T/C 11% @ 100 mg/kg/d”. Further, the results for the Efficacy result in the data set on HT-29 (HT-29 large tumors) and with Rip-Tag were “tumor volume reduction” and “interference with tumor”, respectively. Further, the “Two dose reduction of nintedanib, Reason” value in [1] (All enrolled patients, N = 35) is “DILI (cycle 1, cycle 4)”. The “patients requiring at least one dose reduction of nintedanib” value in data set [1] (all enrolled 35 patients, combination treatment) is “Five”.
